Assay results published in article PMC6124754, “Characterization of new, efficient Mycobacterium tuberculosis topoisomerase-I inhibitors and their interaction with human ABC multidrug transporters” (PLoS ONE, 2018).
≈ marks a conversion by molar mass, not a printed value. Entries after “also recorded” stand apart in the source; their conditions may differ. Where two headings read alike, the source gives them in different places.

Tests used:
[1] = system: HFF cell line; assay: Cytotoxicity, PrestoBlue 72 h, HFF; assay type: cell-based, human; details: Non-toxic = not toxic up to 20 μM; for IC50: read-out: Toxicity in HFF cell line, IC50
Description: (§1) The toxic effects of the selected MtTopo-I inhibitory Vichem compounds were tested in three cell lines, HFF (human foreskin fibroblast), HEK293 (human embryonic kidney) and A431 (human epidermoid carcinoma) cell lines, obtained from ATCC. Establishment of ABC transporter-expressing A431cell lines was achieved by retroviral transduction of the cells as described previously.
(§2) For cytotoxicity measurements the cells were seeded in a 96-well culture plate at 5,000 cells/well (A431, HEK293) or 6000 cells/well (HFF) and incubated overnight. […] After 72 hours of incubation viability was assessed by PrestoBlue® assay (Invitrogen). IC50 values were obtained by sigmoidal curve fitting in the GraphPad Prism software. All experiments were performed in triplicates and repeated at least in three independent experiments. DMSO, used as solvent of the compounds, had no effect on viability at the applied concentration.

[2] = system: HEK293 cell line; assay: Cytotoxicity, PrestoBlue 72 h, HEK293; assay type: cell-based, human; details: for IC50: Homo sapiens, HEK293, Non-toxic = not toxic up to 20 μM, read-out: Toxicity in HEK293 cell line, IC50; for Toxicity in HEK293 cell line, IC50: Non-toxic = not toxic up to 20 μM
Description: as §1, §2

[3] = system: parental A431 cell line; assay: Cytotoxicity, PrestoBlue 72 h, parental A431; assay type: cell-based, human; details: Non-toxic = not toxic up to 20 μM; for IC50: read-out: Toxicity in parental A431 cell line, IC50
Description: as §1, §2

[4] = molecular target: T1, MtTopo-I (Mycobacterium tuberculosis, UniProt P9WG49); assay: DNA relaxation assay of supercoiled pUC18 DNA by MtTopo-I; assay type: biochemical; details: minimum concentration providing complete inhibition
T1 construct: made in house; host or cells: E. coli

[5] = system: H37Rv Mtb strain; assay: H37Rv growth inhibition, resazurin reduction microplate assay (REMA); assay type: cell-based, Mycobacterium tuberculosis; details: for MIC90: Mycobacterium tuberculosis, H37RV, read-out: MIC90 of compounds in H37Rv growth test; for MIC90 / MIC90 of compounds in H37Rv growth test: minimum concentration providing 90% growth inhibition, 20 to 0.04 μM, N.I. = no inhibition observed up to 20 μM; for Toxicity in H37Rv assay (summary): S6 summary table; for Growth inhibition of H37Rv mycobacteria (in words): tested up to 20 μM
[6] = molecular target: T2, human ABCB1 (Homo sapiens, UniProt P08183); assay: Cellular transport assay, Calcein-AM uptake in ABCB1-overexpressing PLB cells; assay type: cell-based; details: for ABC transporter transport assay, ABCB1 (summary): S6 summary table; for Effect on ABCB1 mediated transport (in words): PLB cells, compound 5 μM; as to ABC transporter transport assay, ABCB1 (summary): key: 0: no observed effect; +: effect observed in the assay; In the ATPase assay showing only inhibition, the - sign is applied
Description: (§3) For cellular transport assays, mammalian PLB (lymphoblastoid) cell lines, overexpressing ABCB1 or ABCG2 were used. The parental PLB cell line was purchased from ATCC, and ABCB1 or ABCG2 overexpressing cell lines were established by using lentiviral vectors for human ABC transporters as described earlier in [29]. The transport assays were carried out in 96-well plates. 1x10^5 cells were incubated in the presence of 0.1 μM Calcein-AM or 1 μM DCV (Dye Cycler Violet) for the ABCB1 and for the ABCG2 assays, respectively. The assay was performed in HPMI medium (NaCl 120 mM, KCl 5 mM, MgCl2 0.4 mM, CaCl2 0.04 mM, HEPES 10 mM, NaHCO3 10 mM, glucose 10 mM, Na2HPO4 5 mM; pH 7.4). Fluorescence of the cells was detected using a Victor X3 plate reader (for Calcein, exc. at 485 nm, em. at 535 nm) or the Enspire 2300 (Perkin Elmer) plate reader (for DCV, exc. at 360 nm, em. at 440 nm). Kinetics of fluorescence intensity changes were analyzed to determine relative inhibition, compared to that of a reference agent, providing full inhibition of the ABC transporter. Two of the Vichem compounds examined (VCC979812 and VCC38977) were not compatible with the DCV uptake assay because of their intrinsic fluorescence, therefore for these two compounds ABCG2 transport inhibition was characterized by following mitoxantrone uptake. Mitoxantrone uptake was measured by flow cytometry (BD FACSCanto at 633 nm) by 20 minutes incubation in the presence of 7.5 μM mitoxantrone. Each compound was measured in at least three independent experiments with three parallels in each case. DMSO, used as a solvent of compounds had no effect in this assay at the applied concentration.

[7] = system: HFF, HEK293 and A431 cell lines; assay type: cell-based, human
Description: as §1, §2

[8] = system: ABCB1-overexpressing A431 cell line; details: human, 72 h
[9] = system: ABCG2-overexpressing A431 cell line; details: human, 72 h
[10] = molecular target: T2, human ABCB1; assay: Vanadate-sensitive ATPase activity assay in Sf9 membrane vesicles, ABCB1; assay type: biochemical; parameters: made in house; host or cells: Sf9 insect cells (baculovirus), membrane vesicles; ABCB1 ATPase Vmax: unit not given here; details: for ABC transporter ATPase assay, ABCB1 (summary): S6 summary table; for Effect on ABCB1-ATPase activity (in words): Sf9 membrane vesicles, 0.1–10 μM for the stimulation in b53; for ABCB1 ATPase Vmax: vanadate-sensitive ATPase, from dose-response curves, basal 5.7±0.7; for ABCB1 ATPase, concentration at Vmax: concentration at which Vmax was seen; as to ABC transporter ATPase assay, ABCB1 (summary): key: 0: no observed effect; +: effect observed in the assay; In the ATPase assay showing only inhibition, the - sign is applied
[11] = molecular target: T3, human ABCG2 (Homo sapiens, UniProt Q9UNQ0); assay: Vanadate-sensitive ATPase activity assay in Sf9 membrane vesicles, ABCG2; assay type: biochemical; parameters: made in house; host or cells: Sf9 insect cells (baculovirus), membrane vesicles; ABCG2 ATPase, concentration at Vmax: unit not given here; details: for ABC transporter ATPase assay, ABCG2 (summary): S6 summary table; for Effect on ABCG2-ATPase activity (in words): Sf9 membrane vesicles, 0.1–10 μM for stimulation, 50 μM for inhibition; for ABCG2 ATPase Vmax: vanadate-sensitive ATPase, from dose-response curves, basal 22±1.4; for ABCG2 ATPase, concentration at Vmax: concentration at which Vmax was seen
T3 sequence (Q9UNQ0 1-655): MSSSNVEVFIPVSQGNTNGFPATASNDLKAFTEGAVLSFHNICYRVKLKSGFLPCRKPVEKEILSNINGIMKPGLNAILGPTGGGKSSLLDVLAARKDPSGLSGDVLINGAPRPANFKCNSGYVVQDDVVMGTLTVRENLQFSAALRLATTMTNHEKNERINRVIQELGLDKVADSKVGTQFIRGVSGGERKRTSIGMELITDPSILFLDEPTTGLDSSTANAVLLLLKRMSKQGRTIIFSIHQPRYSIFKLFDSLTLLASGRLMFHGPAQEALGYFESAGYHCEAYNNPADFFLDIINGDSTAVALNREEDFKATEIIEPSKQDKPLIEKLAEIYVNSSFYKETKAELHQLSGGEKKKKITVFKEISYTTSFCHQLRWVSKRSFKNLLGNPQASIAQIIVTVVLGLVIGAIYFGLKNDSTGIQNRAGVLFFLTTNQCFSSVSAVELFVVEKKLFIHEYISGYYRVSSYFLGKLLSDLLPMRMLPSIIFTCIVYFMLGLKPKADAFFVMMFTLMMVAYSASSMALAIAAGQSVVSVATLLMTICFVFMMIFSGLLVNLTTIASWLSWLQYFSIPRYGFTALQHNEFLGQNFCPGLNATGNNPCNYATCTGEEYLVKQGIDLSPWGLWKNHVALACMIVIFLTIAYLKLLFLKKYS

[12] = molecular target: T3, human ABCG2; assay: Cellular transport assay, DCV or mitoxantrone uptake in ABCG2-overexpressing PLB cells; assay type: cell-based; parameters: expressed in transfected cells; host or cells: PLB (human lymphoblastoid) cells, lentiviral transduction; details: for ABC transporter transport assay, ABCG2 (summary): S6 summary table; for Effect on ABCG2 mediated transport (in words): PLB cells, compound 5 μM; as to ABC transporter transport assay, ABCG2 (summary): key: 0: no observed effect; +: effect observed in the assay; In the ATPase assay showing only inhibition, the - sign is applied
Description: as §3

T1 sequence (P9WG49 whole entry): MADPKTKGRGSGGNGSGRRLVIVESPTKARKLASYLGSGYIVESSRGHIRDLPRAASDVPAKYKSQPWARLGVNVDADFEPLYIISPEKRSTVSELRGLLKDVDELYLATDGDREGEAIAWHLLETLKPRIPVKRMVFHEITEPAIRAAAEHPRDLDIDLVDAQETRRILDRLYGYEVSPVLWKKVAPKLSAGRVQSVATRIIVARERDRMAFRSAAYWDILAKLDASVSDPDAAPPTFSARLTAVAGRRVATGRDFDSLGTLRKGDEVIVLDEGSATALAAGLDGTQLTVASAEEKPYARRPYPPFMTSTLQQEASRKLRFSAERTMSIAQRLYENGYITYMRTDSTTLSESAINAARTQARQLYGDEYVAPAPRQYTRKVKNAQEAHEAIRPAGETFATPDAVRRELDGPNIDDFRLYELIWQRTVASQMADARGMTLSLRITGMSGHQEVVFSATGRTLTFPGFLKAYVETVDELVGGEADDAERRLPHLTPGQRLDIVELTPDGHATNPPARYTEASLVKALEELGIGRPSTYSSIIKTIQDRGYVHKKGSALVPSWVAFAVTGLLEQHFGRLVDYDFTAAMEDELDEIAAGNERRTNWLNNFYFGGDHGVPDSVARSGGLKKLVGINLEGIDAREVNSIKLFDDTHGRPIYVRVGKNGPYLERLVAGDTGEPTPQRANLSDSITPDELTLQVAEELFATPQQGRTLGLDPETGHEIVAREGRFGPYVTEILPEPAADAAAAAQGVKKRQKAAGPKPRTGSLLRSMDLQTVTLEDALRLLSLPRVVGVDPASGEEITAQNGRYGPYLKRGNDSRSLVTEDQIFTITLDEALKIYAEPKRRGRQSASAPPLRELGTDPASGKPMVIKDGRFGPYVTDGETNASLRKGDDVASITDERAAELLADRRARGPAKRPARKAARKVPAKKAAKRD
T2 sequence (P08183 whole entry): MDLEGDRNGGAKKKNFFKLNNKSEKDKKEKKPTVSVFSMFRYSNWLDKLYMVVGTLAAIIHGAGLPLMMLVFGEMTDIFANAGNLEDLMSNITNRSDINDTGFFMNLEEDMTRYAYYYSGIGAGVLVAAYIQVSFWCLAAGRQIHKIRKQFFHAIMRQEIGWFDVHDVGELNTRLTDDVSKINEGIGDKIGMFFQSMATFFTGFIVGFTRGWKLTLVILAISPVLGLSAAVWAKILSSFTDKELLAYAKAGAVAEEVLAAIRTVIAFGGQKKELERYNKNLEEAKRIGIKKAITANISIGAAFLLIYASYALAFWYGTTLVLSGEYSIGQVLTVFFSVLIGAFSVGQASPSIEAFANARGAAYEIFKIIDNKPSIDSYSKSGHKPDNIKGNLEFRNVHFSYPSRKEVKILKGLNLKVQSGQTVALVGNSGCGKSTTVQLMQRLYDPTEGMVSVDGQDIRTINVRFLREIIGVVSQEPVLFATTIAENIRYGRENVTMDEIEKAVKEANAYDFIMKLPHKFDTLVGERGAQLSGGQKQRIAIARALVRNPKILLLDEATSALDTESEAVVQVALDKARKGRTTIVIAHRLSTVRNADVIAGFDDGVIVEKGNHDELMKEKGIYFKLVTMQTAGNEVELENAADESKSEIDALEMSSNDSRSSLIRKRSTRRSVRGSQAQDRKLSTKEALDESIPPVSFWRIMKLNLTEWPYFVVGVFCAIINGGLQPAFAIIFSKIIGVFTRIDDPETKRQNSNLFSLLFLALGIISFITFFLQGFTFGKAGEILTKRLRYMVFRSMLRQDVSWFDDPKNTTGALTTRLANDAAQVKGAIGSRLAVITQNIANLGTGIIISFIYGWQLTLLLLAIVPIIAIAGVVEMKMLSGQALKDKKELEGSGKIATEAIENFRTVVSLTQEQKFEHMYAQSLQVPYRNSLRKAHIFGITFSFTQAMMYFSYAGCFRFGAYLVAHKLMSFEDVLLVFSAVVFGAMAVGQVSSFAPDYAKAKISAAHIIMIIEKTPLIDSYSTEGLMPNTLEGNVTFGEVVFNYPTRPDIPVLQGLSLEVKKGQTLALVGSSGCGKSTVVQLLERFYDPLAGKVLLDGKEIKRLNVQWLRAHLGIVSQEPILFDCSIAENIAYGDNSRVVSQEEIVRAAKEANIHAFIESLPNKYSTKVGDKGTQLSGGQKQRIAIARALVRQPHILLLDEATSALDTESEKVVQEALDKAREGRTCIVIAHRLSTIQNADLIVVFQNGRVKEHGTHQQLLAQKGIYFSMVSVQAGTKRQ

Row | SMILES | Toxicity in HFF cell line, IC50 [1] | IC50 [2] | IC50 ([3]; Homo sapiens, A-431, 72 h) | Complete inhibition of MtTopoI [4] | MIC90 [5] | Toxicity in H37Rv assay (summary) [5] | ABC transporter transport assay, ABCB1 (summary) [6] | Toxicity in human cell lines (in words) [7] | ABC transporter ATPase assay, ABCB1 (summary) [10] | Effect on ABCB1-ATPase activity (in words) [10] | ABCB1 ATPase Vmax [10] | ABC transporter ATPase assay, ABCG2 (summary) [11] | Effect on ABCG2-ATPase activity (in words) [11] | ABCG2 ATPase Vmax [11] | ABC transporter transport assay, ABCG2 (summary) [12] | Toxicity in HEK293 cell line, IC50 [2] | Toxicity in parental A431 cell line, IC50 [3] | Toxicity in mammalian cell lines (summary) ([7]; human, 72 h) | ABCB1 ATPase, concentration at Vmax [10] | ABCG2 ATPase, concentration at Vmax [11] | further results
1 | CCc1c2c(nc3ccc(OC(=O)N4CCC(N5CCCCC5)CC4)cc13)-c1cc3c(c(=O)n1C2)COC(=O)[C@]3(O)CC [Irinotecan, reference compound] | Non-toxic | 2.5 µM | 8.6 µM | – | – | – | – | – | – | – | – | – | – | – | – | – | – | – | – | – | –
2 | COc1ccc(/C=C/c2nc(NCCCN(C)C)c3cc4ccccc4cc3n2)cc1 [VCC340963] | – | 10 to 20 µM | < 5 µM | 10 to 25 µM | 2.5 µM (≈ 1.03 µg/mL) | + | + | toxic | 0 | no measurable effect | 7.9±1.2 | 0 | no measurable effect | 22.2±4 | + | – | – | – | – | – | Growth inhibition of H37Rv mycobacteria (in words) [5]: effectively inhibited the growth; IC50 ([1]; Homo sapiens, HFF): < 5 µM; IC50 [1]: 2.5 to 5 µM; IC50 [3]: 3.23 µM; Toxicity in mammalian cell lines (summary) [7]: +; ABC transporter modified cytotoxicity, ABCB1 (summary) [8]: 0; ABC transporter modified cytotoxicity, ABCG2 (summary) [9]: 0
3 | Cc1ccc(-n2nc(C(C)(C)C)cc2Nc2nc3ccccc3nc2NCCCO)cc1 [VCC389777] | Non-toxic | – | – | 7.5 to 10 µM | – | 0 | + | non-toxic | + | well measurable stimulatory effect | 14.4±1.5 | + | significantly stimulated; also recorded: slightly increased | 32.0±3.6 | + | Non-toxic | Non-toxic | 0 | 12.5 µM | 0.4 | MIC90 of compounds in H37Rv growth test [5]: N.I.; Effect on ABCB1-ATPase activity (in words) ([10]; listed as VCC38977): slightly increased
4 | Brc1c2ccccc2c(Br)c2nc(-c3ccco3)c(-c3ccco3)nc12 [VCC450327] | Non-toxic | – | – | 0.1 µM | – | 0 | 0 | non-toxic | – | – | 9.6±1.3 | – | – | 27.2±0.8 | + | Non-toxic | Non-toxic | 0 | 0.19 µM | 0.4 | MIC90 of compounds in H37Rv growth test [5]: N.I.; Effect on ABCB1 mediated transport (in words) [6]: no effect; Effect on ABCG2 mediated transport (in words) [12]: only moderately influence; also recorded: only a slight effect
5 | Cc1ccc(C)c(SCc2nc3cc4ccccc4cc3nc2CSc2cc(C)ccc2C)c1 [VCC891909] | Non-toxic+ | – | – | 7.5 to 10 µM | 10.4 µM (≈ 5 µg/mL) | + | 0 | – | 0 | no measurable effect | 7.8±1.2 | 0 | no measurable effect | 25.3±5 | 0 | Non-toxic | Non-toxic | 0 | 3 µM | 0.01 | Growth inhibition of H37Rv mycobacteria (in words) [5]: Mtb growth inhibitory effect; Effect on ABCB1 mediated transport (in words) [6]: no such transporter inhibitory effect; Effect on ABCG2 mediated transport (in words) [12]: no such transporter inhibitory effect
6 | O=c1c(O)c(-c2ccc(O)c(O)c2)oc2cc(O)cc(O)c12 [quercetin, reference compound] | – | – | – | – | – | – | – | – | – | – | – | – | – | 38.5±1 | – | – | – | – | – | – | –
